Measurements from patent US12655116B2, “Substituted isophthalic acid diamides” (Bayer Aktiengesellschaft, priority 2020, dated 2026).

Experiments:
ABUTH [1] = assay: Pre-emergence herbicidal action against ABUTH; assay type: in vivo, Abutilon theophrasti
How it was run: (§1)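 Visual rating at 3 weeks vs untreated pots; 0–100% scale, 100% = plants died. Treatment: aqueous WP/EC spray onto covering soil, 600–800 l/ha, 0.2% wetter, seeds in sandy loam.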

ALOMY [2] = assay: Pre-emergence herbicidal action against ALOMY; assay type: in vivo, Alopecurus myosuroides
How it was run: as §1

AMARE [3] = assay: Pre-emergence herbicidal action against AMARE; assay type: in vivo, Amaranthus retroflexus
How it was run: as §1

ECHCG [4] = assay: Pre-emergence herbicidal action against ECHCG; assay type: in vivo, Echinochloa crus-galli; conditions: 80 g/ha
How it was run: as §1

LOLRI = assay: Pre-emergence herbicidal action against LOLRI; assay type: in vivo, Lolium rigidum; conditions: 80 g/ha
Text: Seeds of monocotyledonous and dicotyledonous weed plants and crop plants are laid out in sandy loam soil in wood-fiber pots and covered with soil. The compounds of the invention, formulated in the form of wettable powders (WP) or as emulsion concentrates (EC), are then applied to the surface of the covering soil in the form of an aqueous suspension or emulsion at a water application rate equivalent to 600 to 800 l/ha, with addition of 0.2% wetting agent. After the treatment, the pots are placed in a greenhouse and kept under good growth conditions for the trial plants. The damage to the test plants is scored visually after a test period of 3 weeks by comparison with untreated controls (herbicidal activity in percent (%): 100% activity=the plants have died, 0% activity=like control plants). […] The tables below illustrate, in an illustrative manner, the post-emergence herbicidal action of the compounds of the invention, the herbicidal activity being stated in percent.

MATIN [5] = assay: Pre-emergence herbicidal action against MATIN; assay type: in vivo, Matricaria inodora
How it was run: as §1

SETVI [6] = assay: Pre-emergence herbicidal action against SETVI; assay type: in vivo, Setaria viridis; conditions: dosage 80 g/ha
How it was run: as §1

VERPE [7] = assay: Pre-emergence herbicidal action against VERPE; assay type: in vivo, Veronica persica; conditions: dosage 80 g/ha
How it was run: as §1

VIOTR [8] = assay: Pre-emergence herbicidal action against VIOTR; assay type: in vivo, Viola tricolor
How it was run: as §1

DIGSA [9] = assay: Pre-emergence herbicidal action against DIGSA; assay type: in vivo, Digitaria sanguinalis
How it was run: as §1

ABUTH [10] = assay: Post-emergence herbicidal action against ABUTH; assay type: in vivo, Abutilon theophrasti; conditions: visual assessment about 3 weeks after treatment vs untreated controls
How it was run: (§2)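 Greenhouse pot plants in sandy loam were sprayed at the one-leaf stage, 2 to 3 weeks after sowing, with WP or EC formulations as aqueous suspension or emulsion (600 to 800 l/ha water, 0.2% wetting agent). About 3 weeks later, damage was scored visually against untreated controls as % action (100% = dead, 0% = like control).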

ALOMY [11] = assay: Post-emergence herbicidal action against ALOMY; assay type: in vivo, Alopecurus myosuroides; conditions: dosage 20 g/ha, visual assessment about 3 weeks after treatment vs untreated controls
How it was run: as §2

AMARE [12] = assay: Post-emergence herbicidal action against AMARE; assay type: in vivo, Amaranthus retroflexus; conditions: 20 g/ha, visual assessment about 3 weeks after treatment, 100% = plants have died, 0% = like control plants
How it was run: as §2

ECHCG [13] = assay: Post-emergence herbicidal action against ECHCG; assay type: in vivo, Echinochloa crus-galli
How it was run: as §2

PHBPU = assay: Post-emergence herbicidal action against PHBPU; assay type: in vivo, Pharbitis purpurea
How it was run: as §2

SETVI [14] = assay: Post-emergence herbicidal action against SETVI; assay type: in vivo, Setaria viridis
How it was run: as §2

VERPE [15] = assay: Post-emergence herbicidal action against VERPE; assay type: in vivo, Veronica persica; conditions: 20 g/ha
How it was run: as §2

DIGSA [16] = assay: Post-emergence herbicidal action against DIGSA; assay type: in vivo, Digitaria sanguinalis
How it was run: as §2

AVEFA = assay: Pre-emergence herbicidal action against AVEFA; assay type: in vivo, Avena fatua; conditions: Avena fatua, 504 h; 80 g/ha, pre-emergence
How it was run: as §1

MATIN [17] = assay: Post-emergence herbicidal action against MATIN; assay type: in vivo, Matricaria inodora; conditions: Tripleurospermum inodorum, 504 h
How it was run: as §2

VIOTR [18] = assay: Post-emergence herbicidal action against VIOTR; assay type: in vivo, Viola tricolor; conditions: Viola tricolor, 504 h
How it was run: as §2

[19] = 80 g/ha, scored visually after 3 weeks vs untreated controls (100% = plants have died, 0% = like control plants)

## COCCNC(=O)c1c(C(F)(F)F)ccc(C(=O)Nc2nnnn2C)c1C [Example 1-34]
ABUTH [1]; [19]
  Pre-emergence action against ABUTH (herbicidal activity): 100%
ABUTH [1]; dosage 20 g/ha, scored visually after 3 weeks vs untreated controls, 100% = plants have died, 0% = like control plants
  Pre-emergence action against ABUTH (herbicidal activity in percent): 80%
ALOMY [2]; 20 g/ha, scored visually after 3 weeks, 100% = plants have died, 0% = like control plants
  Pre-emergence action against ALOMY: 80%
ALOMY [2]; 80 g/ha, pre-emergence, scored visually after 3 weeks vs untreated controls (100% = plants have died, 0% = like control plants)
  Pre-emergence action against ALOMY (herbicidal activity): 100%
AMARE [3]; 20 g/ha, scored visually after 3 weeks vs untreated controls, 100% = plants have died, 0% = like control plants
  Pre-emergence action against AMARE in %: 100%
AMARE [3]; [19]
  Pre-emergence action against AMARE in %: 100%
ECHCG [4]
  Pre-emergence action against ECHCG in %: 90%
LOLRI
  Pre-emergence action against LOLRI in %: 80%
MATIN [5]; dosage 80 g/ha
  Pre-emergence action against MATIN in %: 90%
SETVI [6]
  Pre-emergence action against SETVI in %: 100%
VERPE [7]
  Pre-emergence action against VERPE in %: 100%
VIOTR [8]; dosage 20 g/ha
  Pre-emergence action against VIOTR in %: 100%
VIOTR [8]; dosage 80 g/ha
  Pre-emergence action against VIOTR in %: 100%
DIGSA [9]; dosage 20 g/ha
  Pre-emergence action against DIGSA in %: 100%
DIGSA [9]; dosage 80 g/ha
  Pre-emergence action against DIGSA in %: 100%
ABUTH [10]; dosage 5 g/ha
  Post-emergence action against ABUTH in %: 90%
ABUTH [10]; dosage 20 g/ha
  Post-emergence action against ABUTH in %: 100%
ALOMY [11]
  Post-emergence action against ALOMY in %: 90%
AMARE [12]
  Post-emergence action at 20 g/ha against AMARE in %: 100%
ECHCG [13]; dosage 5 g/ha
  Post-emergence action against ECHCG in %: 90%
ECHCG [13]; dosage 20 g/ha
  Post-emergence action against ECHCG in %: 90%
PHBPU; dosage 5 g/ha
  Post-emergence action against PHBPU in %: 90%
PHBPU; dosage 20 g/ha
  Post-emergence action against PHBPU in %: 90%
SETVI [14]; dosage 5 g/ha
  Post-emergence action against SETVI in %: 80%
SETVI [14]; dosage 20 g/ha
  Post-emergence action against SETVI in %: 90%
VERPE [15]
  Post-emergence action against VERPE in %: 90%
DIGSA [16]; 5 g/ha
  Post-emergence action against DIGSA in %: 80%
DIGSA [16]; 20 g/ha
  Post-emergence action against DIGSA: 90%

## CSc1c(C(=O)Nc2nnnn2C)ccc(C(F)(F)F)c1C(=O)NC1CC1 [Example 1-83]
ABUTH [1]; Abutilon theophrasti, 504 h, 80 g/ha, scored visually after 3 weeks vs untreated controls (100% = plants have died, 0% = like control plants)
  pest or weed control at 80 g/ha: 100%
ABUTH [1]; Abutilon theophrasti, 504 h, dosage 20 g/ha, scored visually after 3 weeks vs untreated controls, 100% = plants have died, 0% = like control plants, read-out: Pre-emergence action against ABUTH (herbicidal activity in percent)
  pest or weed control at 20 g/ha: 100%
ALOMY [2]; Alopecurus myosuroides, 504 h, 80 g/ha, pre-emergence, scored visually after 3 weeks vs untreated controls (100% = plants have died, 0% = like control plants)
  pest or weed control at 80 g/ha: 100%
ALOMY [2]; Alopecurus myosuroides, pre-emergence, 504 h, 20 g/ha, scored visually after 3 weeks, 100% = plants have died, 0% = like control plants
  pest or weed control at 20 g/ha: 80%
AMARE [3]; Amaranthus retroflexus, 504 h, 80 g/ha, scored visually after 3 weeks vs untreated controls, 100% = plants have died, 0% = like control plants
  pest or weed control at 80 g/ha: 100%
AVEFA
  pest or weed control at 80 g/ha: 80%
ECHCG [4]; Echinochloa crus-galli, 504 h
  pest or weed control at 80 g/ha: 90%
LOLRI; Lolium rigidum, 504 h
  pest or weed control at 80 g/ha: 80%
MATIN [5]; Tripleurospermum inodorum, 504 h, dosage 20 g/ha
  pest or weed control at 20 g/ha: 90%
MATIN [5]; Tripleurospermum inodorum, 504 h, dosage 80 g/ha
  pest or weed control at 80 g/ha: 100%
SETVI [6]; Setaria viridis, 504 h
  pest or weed control at 80 g/ha: 100%
VERPE [7]; Veronica persica, 504 h
  pest or weed control at 80 g/ha: 80%
VIOTR [8]; Viola tricolor, 504 h, dosage 20 g/ha
  pest or weed control at 20 g/ha: 90%
VIOTR [8]; Viola tricolor, 504 h, dosage 80 g/ha
  pest or weed control at 80 g/ha: 100%
ABUTH [10]; Abutilon theophrasti, 504 h, dosage 5 g/ha
  pest or weed control at 5 g/ha: 90%
ABUTH [10]; Abutilon theophrasti, 504 h, dosage 20 g/ha
  pest or weed control at 20 g/ha: 90%
ALOMY [11]; Alopecurus myosuroides, 504 h
  pest or weed control at 20 g/ha: 100%
AMARE [12]; Amaranthus retroflexus, 504 h
  pest or weed control at 20 g/ha: 100%
ECHCG [13]; Echinochloa crus-galli, 504 h, dosage 20 g/ha
  pest or weed control at 20 g/ha: 90%
MATIN [17]; dosage 5 g/ha
  pest or weed control at 5 g/ha: 80%
MATIN [17]; dosage 20 g/ha
  pest or weed control at 20 g/ha: 90%
PHBPU; Ipomoea purpurea, 504 h, dosage 20 g/ha
  pest or weed control at 20 g/ha: 90%
SETVI [14]; Setaria viridis, 504 h, dosage 5 g/ha
  pest or weed control at 5 g/ha: 80%
SETVI [14]; Setaria viridis, 504 h, dosage 20 g/ha
  pest or weed control at 20 g/ha: 100%
VERPE [15]; Veronica persica, 504 h
  pest or weed control at 20 g/ha: 90%
VIOTR [18]; 5 g/ha
  pest or weed control at 5 g/ha: 90%
VIOTR [18]; 20 g/ha
  pest or weed control at 20 g/ha: 90%
